# Experimental data from patent US9302999B2, “Substituted triazoles as herbicides” (E. I. DU PONT DE NEMOURS AND COMPANY, priority 2012, dated 2016).
# Legend:
# Type in all cases: in vivo
# [1] = system: barnyardgrass (Echinochloa crus-galli); experiment: Test A pre-/postemergence: barnyardgrass
# Summary of the method: (§1)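 Plants in loam–sand blend were treated with test chemicals in non-phytotoxic solvent with surfactant, either as preemergence directed soil spray or postemergence at 2–10 cm, one- to two-leaf stage. After about ten days in greenhouse, injury was rated visually against untreated controls on a 0–100 scale (100 = complete control).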
# [2] = system: morningglory (Ipomoea spp.); experiment: Test A pre-/postemergence: morningglory
# Summary of the method: as §1
# [3] = system: wheat (Triticum aestivum); experiment: Test A pre-/postemergence: wheat
# Summary of the method: as §1
# corn (Zea mays) = experiment: Test A pre-/postemergence: corn
# Summary of the method: as §1
# [4] = system: blackgrass (Alopecurus myosuroides); experiment: Test C pre-/postemergence: blackgrass
# Summary of the method: (§2)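 Preemergence on seeds in loam/sand, postemergence on 2–18 cm (1–4-leaf) plants in peat-based medium; compounds in non-phytotoxic solvent with surfactant. After 13–15 days in greenhouse, visual rating versus controls, 0 (no effect) to 100 (complete control).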
# [5] = system: ryegrass, Italian (Italian ryegrass, Lolium multiflorum); experiment: Test C pre-/postemergence: ryegrass, Italian
# Summary of the method: as §2
# [6] = system: large crabgrass (Digitaria sanguinalis); experiment: Test C pre-/postemergence: large crabgrass
# Summary of the method: as §2
# [7] = system: johnsongrass (Sorghum halepense); experiment: Test C pre-/postemergence: johnsongrass
# Summary of the method: as §2
# [8] = system: nutsedge, yellow (yellow nutsedge, Cyperus esculentus); experiment: Test C pre-/postemergence: nutsedge, yellow
# Summary of the method: as §2
# [9] = system: pigweed (Amaranthus retroflexus); experiment: Test C pre-/postemergence: pigweed
# Summary of the method: as §2
# soybean (Glycine max) = experiment: Test C pre-/postemergence: soybean
# Summary of the method: as §2
# [10] = Postemergence, 125 g ai/ha, 0 to 100 scale, 0 is no effect, 100 is complete control
# [11] = Postemergence, 500 g ai/ha, 0 to 100 scale, 0 is no effect, 100 is complete control
# [12] = Preemergence, 125 g ai/ha, 0 to 100 scale where 0 is no effect and 100 is complete control
# [13] = Preemergence, 500 g ai/ha, 0 to 100 scale (0 no effect, 100 complete control)
# [14] = Postemergence, 31 g ai/ha, scale 0 to 100 (0 no effect, 100 complete control)
# [15] = Postemergence, 62 g ai/ha, scale 0 to 100 (0 no effect, 100 complete control)
# [16] = Postemergence, 125 g ai/ha, scale 0 to 100, 0 no effect, 100 complete control
# [17] = Postemergence, 250 g ai/ha, scale 0 to 100
# [18] = Preemergence, 31 g ai/ha, scale 0 (no effect) to 100 (complete control)
# [19] = Preemergence, 62 g ai/ha, scale of 0 to 100, 0 is no effect, 100 is complete control
# [20] = Preemergence, 125 g ai/ha, scale 0 to 100, 0 no effect, 100 complete control
# [21] = Preemergence, 250 g ai/ha, scale 0 to 100, 0 no effect, 100 complete control
# [22] = Postemergence, 250 g ai/ha, scale 0 to 100 (0 no effect, 100 complete control)
compound,measurement,setting,value
CCc1nn(-c2ccc(C(F)(F)F)c(F)c2)nc1Oc1ccnc(C(F)(F)F)c1 [Compound 183],"Plant response rating, Barnyardgrass",[1]; [10],80
same,Barnyardgrass plant response rating,[1]; [11],90
same,"Plant response rating, Barnyardgrass",[1]; [12],90
same,"Plant response rating, Barnyardgrass",[1]; [13],100
same,"Plant response rating, Morningglory",[2]; [10],100
same,Morningglory plant response rating,[2]; [11],100
same,"Plant response rating, Morningglory",[2]; [12],70
same,"Plant response rating, Morningglory",[2]; [13],90
same,"Plant response rating, Wheat",[3]; [10],30
same,Wheat plant response rating,[3]; [11],40
same,"Plant response rating, Wheat",[3]; [12],30
same,"Plant response rating, Wheat",[3]; [13],60
same,"Plant response rating, Corn",corn (Zea mays); [10],20
same,Corn plant response rating,corn (Zea mays); [11],50
same,"Plant response rating, Corn",corn (Zea mays); [12],20
same,"Plant response rating, Corn",corn (Zea mays); [13],30
same,"Plant response rating, Blackgrass",[4]; [14],10
same,"Plant response rating, Blackgrass",[4]; [15],20
same,"Plant response rating, Blackgrass",[4]; [16],60
same,"Plant response rating, Blackgrass",[4]; [17],60
same,"Plant response rating, Blackgrass",[4]; [18],80
same,"Plant response rating, Blackgrass",[4]; [19],95
same,"Plant response rating, Blackgrass",[4]; [20],95
same,"Plant response rating, Blackgrass",[4]; [21],100
same,"Plant response rating, Ryegrass, Italian",[5]; [14],10
same,"Plant response rating, Ryegrass, Italian",[5]; [15],15
same,"Plant response rating, Ryegrass, Italian",[5]; [16],20
same,"Plant response rating, Ryegrass, Italian",[5]; [22],40
same,"Plant response rating, Ryegrass, Italian",[5]; [18],65
same,"Plant response rating, Ryegrass, Italian",[5]; [19],80
same,"Plant response rating, Ryegrass, Italian",[5]; [20],90
same,"Plant response rating, Ryegrass, Italian",[5]; [21],95
same,"Plant response rating, Crabgrass, Large",[6]; [14],25
same,"Plant response rating, Crabgrass, Large",[6]; [15],35
same,"Plant response rating, Crabgrass, Large",[6]; [16],35
same,"Plant response rating, Crabgrass, Large",[6]; [17],85
same,"Plant response rating, Crabgrass, Large",[6]; [18],100
same,"Plant response rating, Crabgrass, Large",[6]; [19],100
same,"Plant response rating, Crabgrass, Large",[6]; [20],100
same,"Plant response rating, Crabgrass, Large",[6]; [21],100
same,"Plant response rating, Johnsongrass",[7]; [14],20
same,"Plant response rating, Johnsongrass",[7]; [15],30
same,"Plant response rating, Johnsongrass",[7]; [16],50
same,"Plant response rating, Johnsongrass",[7]; [22],75
same,"Plant response rating, Johnsongrass",[7]; [18],10
same,"Plant response rating, Johnsongrass",[7]; [19],35
same,"Plant response rating, Johnsongrass",[7]; [20],80
same,"Plant response rating, Johnsongrass",[7]; [21],95
same,"Plant response rating, Nutsedge, Yellow",[8]; [14],10
same,"Plant response rating, Nutsedge, Yellow",[8]; [15],10
same,"Plant response rating, Nutsedge, Yellow",[8]; [16],10
same,"Plant response rating, Nutsedge, Yellow",[8]; [22],10
same,"Plant response rating, Nutsedge, Yellow",[8]; [18],0
same,"Plant response rating, Nutsedge, Yellow",[8]; [19],0
same,"Plant response rating, Nutsedge, Yellow",[8]; [20],5
same,"Plant response rating, Nutsedge, Yellow",[8]; [21],5
same,"Plant response rating, Pigweed",[9]; [14],100
same,"Plant response rating, Pigweed",[9]; [16],100
same,"Plant response rating, Pigweed",[9]; [22],100
same,"Plant response rating, Pigweed",[9]; [18],100
same,"Plant response rating, Pigweed",[9]; [19],100
same,"Plant response rating, Pigweed",[9]; [20],100
same,"Plant response rating, Pigweed",[9]; [21],100
same,"Plant response rating, Soybean",soybean (Glycine max); [14],35
same,"Plant response rating, Soybean",soybean (Glycine max); [15],55
same,"Plant response rating, Soybean",soybean (Glycine max); [16],55
same,"Plant response rating, Soybean",soybean (Glycine max); [22],90
same,"Plant response rating, Soybean",soybean (Glycine max); [18],5
same,"Plant response rating, Soybean",soybean (Glycine max); [19],5
same,"Plant response rating, Soybean",soybean (Glycine max); [20],10
same,"Plant response rating, Soybean",soybean (Glycine max); [21],30
CCOc1nn(-c2ccc(Cl)cc2)nc1Cc1ccnc(C(F)(F)F)c1 [Compound 188],"Plant response rating, Barnyardgrass",[1]; [10],90
same,Barnyardgrass plant response rating,[1]; [11],90
same,"Plant response rating, Barnyardgrass",[1]; [12],90
same,"Plant response rating, Barnyardgrass",[1]; [13],100
same,"Plant response rating, Morningglory",[2]; [10],90
same,Morningglory plant response rating,[2]; [11],100
same,"Plant response rating, Morningglory",[2]; [12],20
same,"Plant response rating, Morningglory",[2]; [13],90
same,"Plant response rating, Wheat",[3]; [10],70
same,Wheat plant response rating,[3]; [11],70
same,"Plant response rating, Wheat",[3]; [12],30
same,"Plant response rating, Wheat",[3]; [13],50
same,"Plant response rating, Corn",corn (Zea mays); [10],40
same,Corn plant response rating,corn (Zea mays); [11],50
same,"Plant response rating, Corn",corn (Zea mays); [12],10
same,"Plant response rating, Corn",corn (Zea mays); [13],20
same,"Plant response rating, Blackgrass",[4]; [14],55
same,"Plant response rating, Blackgrass",[4]; [15],55
same,"Plant response rating, Blackgrass",[4]; [16],85
same,"Plant response rating, Blackgrass",[4]; [17],90
same,"Plant response rating, Blackgrass",[4]; [18],80
same,"Plant response rating, Blackgrass",[4]; [19],100
same,"Plant response rating, Blackgrass",[4]; [20],100
same,"Plant response rating, Blackgrass",[4]; [21],100
same,"Plant response rating, Ryegrass, Italian",[5]; [14],50
same,"Plant response rating, Ryegrass, Italian",[5]; [15],70
same,"Plant response rating, Ryegrass, Italian",[5]; [16],85
same,"Plant response rating, Ryegrass, Italian",[5]; [22],90
same,"Plant response rating, Ryegrass, Italian",[5]; [18],60
same,"Plant response rating, Ryegrass, Italian",[5]; [19],65
same,"Plant response rating, Ryegrass, Italian",[5]; [20],95
same,"Plant response rating, Ryegrass, Italian",[5]; [21],98
same,"Plant response rating, Crabgrass, Large",[6]; [14],50
same,"Plant response rating, Crabgrass, Large",[6]; [15],85
same,"Plant response rating, Crabgrass, Large",[6]; [16],95
same,"Plant response rating, Crabgrass, Large",[6]; [17],95
same,"Plant response rating, Crabgrass, Large",[6]; [18],98
same,"Plant response rating, Crabgrass, Large",[6]; [19],100
same,"Plant response rating, Crabgrass, Large",[6]; [20],100
same,"Plant response rating, Crabgrass, Large",[6]; [21],100
same,"Plant response rating, Johnsongrass",[7]; [14],45
same,"Plant response rating, Johnsongrass",[7]; [15],75
same,"Plant response rating, Johnsongrass",[7]; [16],95
same,"Plant response rating, Johnsongrass",[7]; [22],98
same,"Plant response rating, Johnsongrass",[7]; [18],55
same,"Plant response rating, Johnsongrass",[7]; [19],85
same,"Plant response rating, Johnsongrass",[7]; [20],95
same,"Plant response rating, Johnsongrass",[7]; [21],98
same,"Plant response rating, Nutsedge, Yellow",[8]; [14],10
same,"Plant response rating, Nutsedge, Yellow",[8]; [15],10
same,"Plant response rating, Nutsedge, Yellow",[8]; [16],10
same,"Plant response rating, Nutsedge, Yellow",[8]; [22],15
same,"Plant response rating, Nutsedge, Yellow",[8]; [18],5
same,"Plant response rating, Nutsedge, Yellow",[8]; [19],5
same,"Plant response rating, Nutsedge, Yellow",[8]; [20],5
same,"Plant response rating, Nutsedge, Yellow",[8]; [21],20
same,"Plant response rating, Pigweed",[9]; [14],95
same,"Plant response rating, Pigweed",[9]; [15],95
same,"Plant response rating, Pigweed",[9]; [16],98
same,"Plant response rating, Pigweed",[9]; [22],100
same,"Plant response rating, Pigweed",[9]; [18],100
same,"Plant response rating, Pigweed",[9]; [19],100
same,"Plant response rating, Pigweed",[9]; [20],100
same,"Plant response rating, Pigweed",[9]; [21],100
same,"Plant response rating, Soybean",soybean (Glycine max); [14],40
same,"Plant response rating, Soybean",soybean (Glycine max); [15],50
same,"Plant response rating, Soybean",soybean (Glycine max); [16],50
same,"Plant response rating, Soybean",soybean (Glycine max); [22],55
same,"Plant response rating, Soybean",soybean (Glycine max); [18],5
same,"Plant response rating, Soybean",soybean (Glycine max); [19],20
same,"Plant response rating, Soybean",soybean (Glycine max); [21],65
